In patent US20060141010A1, “Coated preparations that contain at least one hydroformate” (Basf Aktiengesellschaft, priority 2003, published 2006):

Tested on: one-day-old chickens
Experiment: Feeding experiment using coated trisodium hydrogenformate preparations in a standard wheat-soy diet
Format: in vivo
Details: after 21 days, vs negative control (standard wheat-soy diet)
Description: A feeding experiment was carried out using one-day-old chickens. Trisodium hydrogenformate was coated with 0, 15 and 30% by weight hydrogenated soybean oil. Per dose, 2 repetitions were carried out, and 10 chickens were used in each feeding experiment.
A standard wheat-soy diet was used as negative control. The coated trisodium hydrogenformate preparations were added to the diet in exchange for cellulose (1% in the negative control).
Feeding results compared with the negative control [%] after 21 days.

[1] = 0.4 % by weight trisodium hydrogenformate in diet
[2] = 0.8 % by weight trisodium hydrogenformate in diet

O=CO.O=C[O-].O=C[O-].O=C[O-].[Na+].[Na+].[Na+] [trisodium hydrogenformate]
FCR (feed conversion rate), feeding results compared with the negative control [1]: +2% | Weight gain, feeding results compared with the negative control [1]: +2% | FCR (feed conversion rate), feeding results compared with the negative control [2]: +5% | Weight gain, feeding results compared with the negative control [2]: +2%
